Earlier results on 9 molecules are cited in patent US10570353B2, “Cleaning compositions” (Ascent IP Holdings, LLC, priority 2009, dated 2020).

The conditions of data set [1]: identified from data sources.
The conditions of data set [2]: published toxicity data.
The conditions of data set [3]: trace constituents of Trilon M Liquid.
For data set [4] the following is noted: supplier's nominal lipase activity.

With `Cn1sc(Cl)cc1=O` [5-Chloro-2-Methyl-4-isothiazolin-3-one], the skin sensitizer listing result in data set [1] is reported as “skin sensitizers”.
Consider cocamidopropyl betaine, for which the skin sensitizer listing entry in data set [1] is given as “skin sensitizers”.
In the case of `OO` [hydrogen peroxide], the skin sensitizer listing result in data set [1] is reported as “skin sensitizers”. Further, in data set [2], the mutagenicity result was “potential risk for mutagenicity”.
As to `O=C([O-])CN(CC(=O)[O-])CC(=O)[O-].[Na+].[Na+].[Na+]` [trisodium nitrilotriacetate], the carcinogenicity listing result in data set [3] is recorded as “suspected carcinogens”.
`C=O` [formaldehyde]: the carcinogenicity listing result in data set [3] is given as “suspected carcinogens”.
`[Na+].[OH-]` [sodium hydroxide]: the skin sensitizer listing entry in data set [1] is “skin sensitizers”.
Consider `Cn1sccc1=O` [2-Methyl-4-isothiazolin-3-one], for which, in data set [1], the skin sensitizer listing result is given as “skin sensitizers”.

B1: LIPOLASE® 100L: lipase derived from Thermomyces lanuginosus, from Novo-Nordisk A/S, liquid solution (protein, UniProt O59952 23-291, looked up)
Lipase: EVSQDLFNQFNLFAQYSAAAYCGKNNDAPAGTNITCTGNACPEVEKADATFLYSFEDSGVGDVTGFLALDNTNKLIVLSFRGSRSIENWIGNLNFDLKEINDICSGCRGHDGFTSSWRSVADTLRQKVEDAVREHPDYRVVFTGHSLGGALATVAGADLRGNGYDIDVFSYGAPRVGNRAFAEFLTVQTGGTLYRITHTNDIVPRLPPREFGYSHSSPEYWIKSGTLVPVTRNDIVKIEGIDATGGNNQPNIPDIPAHLWYFGLIGTCL
modifications: liquid commercial formulation
notes: lipase derived from Thermomyces lanuginosus, from Novo-Nordisk A/S, liquid solution
As for B1, the nominal activity in data set [4] is 100 kLU/g.

B2: LIPOLASE® 100T: lipase derived from Thermomyces lanuginosus, from Novo-Nordisk A/S, granular solid (protein, UniProt O59952 23-291, looked up)
Lipase: B1 Lipase
modifications: granular commercial formulation
notes: lipase derived from Thermomyces lanuginosus, from Novo-Nordisk A/S, granular solid
Consider B2, for which the nominal activity in data set [4] is listed as 100 kLU/g.
